{"source": "paper PMC9386018", "about": "“A lymphatic-absorbed multi-targeted kinase inhibitor for myelofibrosis therapy” (Nature Communications, 2022)", "key": {"[1]": {"target": "BRAF (Homo sapiens, UniProt P15056)", "sequence (P15056 whole entry)": "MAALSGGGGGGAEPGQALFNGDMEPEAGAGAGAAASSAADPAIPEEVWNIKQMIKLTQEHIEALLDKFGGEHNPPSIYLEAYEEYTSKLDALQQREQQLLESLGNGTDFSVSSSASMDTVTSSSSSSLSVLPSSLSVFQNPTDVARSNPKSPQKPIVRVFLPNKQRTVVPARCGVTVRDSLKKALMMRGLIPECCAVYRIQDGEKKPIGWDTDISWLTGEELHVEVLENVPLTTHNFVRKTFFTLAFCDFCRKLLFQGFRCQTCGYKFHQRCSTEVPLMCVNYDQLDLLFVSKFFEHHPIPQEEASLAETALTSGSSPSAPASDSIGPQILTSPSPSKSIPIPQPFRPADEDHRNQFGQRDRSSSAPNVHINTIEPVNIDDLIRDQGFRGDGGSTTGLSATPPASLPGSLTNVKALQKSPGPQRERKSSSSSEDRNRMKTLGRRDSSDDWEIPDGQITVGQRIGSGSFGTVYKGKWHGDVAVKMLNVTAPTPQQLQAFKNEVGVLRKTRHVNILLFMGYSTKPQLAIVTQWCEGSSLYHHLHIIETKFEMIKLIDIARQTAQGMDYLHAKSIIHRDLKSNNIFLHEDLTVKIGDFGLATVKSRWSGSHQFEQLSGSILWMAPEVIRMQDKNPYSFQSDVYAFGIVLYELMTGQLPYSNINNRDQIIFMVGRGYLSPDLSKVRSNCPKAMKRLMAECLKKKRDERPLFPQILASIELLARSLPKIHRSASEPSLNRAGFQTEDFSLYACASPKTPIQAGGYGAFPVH", "assay": "Target kinase 10-point inhibition assay, BRAF", "format": "biochemical", "conditions": "replicates", "excerpt": "The average percent kinase inhibition from replicate data was ranked low to high, converted to a compatible identifier format, then input into Coral Human Kinome Visualization software for presentation analysis. […] Scaling of evolutionary distance for PI kinases is only relative and is based on literature analysis[62],[63]. Average percent kinome inhibition values from replicate data are supplied in Source Data file. […] Corrected data was normalized to vehicle treated control values, and dose response percent kinase activity was analyzed by non-linear regression for determination of IC50 values."}, "[2]": {"tested_on": "ERK1/2 and pERK1/2 (pT202/pY204) in bone marrow", "assay": "MPL^W515L MF mouse model: ERK1/2 and pERK1/2 immunoblot of bone marrow", "format": "in vivo", "conditions": "MPL^W515L mice, oral 400 mg kg^−1 daily, 28 d", "method": "Generation of the MPL^W515L mutant MF mouse model was similar to previously described methods. Briefly, female donor BALB/c mice were treated with 5-fluorouracil at 150 mg kg^−1 intraperitoneal for 5 d before harvesting bone marrow. Hematopoietic stem and progenitor cells were enriched with CD117 magnetic beads (Miltenyi Biotec), transduced with retrovirus containing MSCV-hMPL W515L-IRES-GFP, then 50,000 transduced HSPCs along with 300,000 total non-stem cells were injected intravenously into lethally irradiated female BALB/c recipients. Development of MF was evaluated by spleen volumes using MRI beginning ~14 d following bone marrow transplantation (BMT) as outlined below, continuing weekly until end of the study. Mice were separated into equal groups based on spleen size ~14–21 d post-BMT, then treated with vehicle (Maisine CC) or LP-182 at 400 mg kg^−1 daily by oral gavage for 14–28 d or until mice were euthanized using guidelines for end stage illness and humane endpoints. Untreated healthy control animals were used for experimental comparisons. […] Soluble protein extracts were isolated by centrifugation at 15,000 x g for 15 min at 4 °C, quantified using Micro BCA protein assay (Thermo Scientific), then mixed with reducing 6X SDS-PAGE loading dye, heated for 8 min at 95 °C, and stored at −20 °C until immuno-blot analysis. […]"}, "[3]": {"assay": "Pathological and histological toxicity screening in healthy mice", "format": "in vivo, mouse", "set-up": "Hematology Analysis WBC: unit not given here", "conditions": "for Body weight: Supplementary Figure 8a", "method": "Female CD-1 mice were dosed orally with vehicle (Maisine CC; n = 5) or LP-182 at 400 mg kg^−1 (n = 4) daily for 10 d, followed by an 8 d rest period, then underwent necropsy for hematological, histological, and pathological evaluation by the University of Michigan Unit for Laboratory Animal Medicine In Vivo Animal Core. Untreated animals (n = 3) were also monitored during the study for non-compound related adverse findings (ie. gavage stress impacting weight gain, vehicle-related toxicity), however no findings were observed, thus main comparisons were made between vehicle and compound treated mice. […] Briefly, mice were euthanized by CO2 inhalation, then blood was collected by cardiac puncture and transferred into EDTA anticoagulant-containing tubes, followed by gross necropsy, then tissue harvest and fixation in 10% neutral buffered formalin at a 10:1 (v/v) ratio of fixative to tissue. Differential blood counts were generated from whole blood using a Hemavet 950 automated hematology analyzer (Drew Scientific), and tissues were processed for paraffin embedding using routine histological methods, then sectioned at 4 µm by rotary microtome and mounted on glass slides for hematoxylin and eosin (H&E) staining and evaluation by light microscopy at magnifications ranging from 10–40x. Data was generated from n ≥ 3 individual animals per grouping. Two animals in the vehicle treated group were excluded from blood count analysis due to insufficient sample collection and sample clotting, respectively."}, "[4]": {"conditions": "healthy mice, oral 400 mg kg^−1 for 10 d, 8 d rest"}, "[5]": {"conditions": "individual animals, Supplementary Figure 8c"}, "[6]": {"conditions": "individual animals, Supplementary Figure 8c, in 10^3/µL (unit assumed)"}, "[7]": {"conditions": "individual animals, Supplementary Figure 8c, in % (unit assumed)"}, "[8]": {"conditions": "individual animals, Supplementary Figure 8c, in fL (unit assumed)"}, "[9]": {"conditions": "individual animals, Supplementary Figure 8c, in g/dL (unit assumed)"}}, "note": "Where “and” joins values, the source holds several entries; their conditions need not be identical. Equal values may be shown once."}
{"smiles": "O=C(NOCCOCCOCCOCCC(=O)N1CCN(c2cnc3ccc(-c4cnc(Cl)c(NS(=O)(=O)c5ccc(F)cc5)c4)cc3n2)CC1)c1ccc(F)c(F)c1Nc1ccc(I)cc1F", "note": "[LP-182, N-(2-(2-(2-(3-(4-(7-(6-chloro-5-((4-fluorophenyl)sulfonamido)pyridin-3-yl)quinoxalin-2-yl)piperazin-1-yl)-3-oxopropoxy)ethoxy)ethoxy)ethoxy)-3,4-difluoro-2-((2-fluoro-4-iodophenyl)amino)benzamide]", "values": [{"measurement": "activity at 0.000495 µM", "setting": "[1]; 0.495 nM", "result": 100, "unit": "%"}, {"measurement": "Kinase Activity (%)", "setting": "[1]; 0.495 nM, 0.000495 µM", "result": "102% and 96% and 94% and 93%"}, {"measurement": "activity at 0.00152 µM", "setting": "[1]; 1.52 nM", "result": 101, "unit": "%"}, {"measurement": "Kinase Activity (%)", "setting": "[1]; 1.52 nM, 0.00152 µM", "result": "98% and 95% (2×) and 94%"}, {"measurement": "activity at 0.00457 µM", "setting": "[1]; 4.57 nM", "result": 90, "unit": "%"}, {"measurement": "Kinase Activity (%)", "setting": "[1]; 4.57 nM, 0.00457 µM", "result": "94% and 95% and 98% and 89% and 93%"}, {"measurement": "Kinase Activity (%)", "setting": "[1]; 41.2 nM, 0.0412 µM", "result": "49% and 38% and 54% and 59% and 53% (2×)"}, {"measurement": "Kinase Activity (%)", "setting": "[1]; 123 nM, 0.123 µM", "result": "14% and 12% and 41% and 34% (2×) and 38%"}, {"measurement": "Kinase Activity (%)", "setting": "[1]; 1110 nM, 1.11 µM", "result": "-5% and -3% and 2% (2×) and 4% and 5%"}, {"measurement": "Kinase Activity (%)", "setting": "[1]; 3330 nM, 3.33 µM", "result": "-5% (2×) and 1% (3×) and 4%"}, {"measurement": "Kinase Activity (%)", "setting": "[1]; 10000 nM, 10 µM", "result": "-2% and -5% and 2% and 1% and 7% and -1%"}, {"measurement": "levels and activation of ERK1/2 in bone marrow", "setting": "[2]", "result": "attenuate downstream MPL^W515L signal transduction"}, {"measurement": "Relative organ/body weight, Brain", "setting": "[3]; Brain, individual animals, Supplementary Figure 8b", "result": "1.539% and 1.685% and 1.7935% and 1.6704%"}, {"measurement": "Relative organ/body weight, Left kidney", "setting": "[3]; Left kidney, individual animals, Supplementary Figure 8b", "result": "0.6549% and 0.6559% and 0.6824% and 0.6502%"}, {"measurement": "Relative organ/body weight, Liver", "setting": "[3]; Liver, individual animals, Supplementary Figure 8b", "result": "5.775% and 6.631% and 5.788% and 5.583%"}, {"measurement": "Relative organ/body weight, Right kidney", "setting": "[3]; Right kidney, individual animals, Supplementary Figure 8b", "result": "0.662% and 0.6523% and 0.6788% and 0.6203%"}, {"measurement": "Relative organ/body weight, Spleen", "setting": "[3]; Spleen, individual animals, Supplementary Figure 8b", "result": "0.5915% and 0.4229% and 0.6217% and 0.4223%"}, {"measurement": "Relative organ/body weight, Thymus", "setting": "[3]; Thymus, individual animals, Supplementary Figure 8b", "result": "0.2641% and 0.1505% and 0.283% and 0.2317%"}, {"measurement": "Body weight", "setting": "[3]; Time 1 d, individual animals", "result": "24 g and 26 g and 25 g (2×)"}, {"measurement": "Body weight", "setting": "[3]; Time 5 d, individual animals", "result": "26 g (3×) and 27 g"}, {"measurement": "Body weight", "setting": "[3]; Time 10 d, individual animals", "result": "26 g (3×) and 27 g"}, {"measurement": "Body weight", "setting": "[3]; Time 15 d, individual animals", "result": "27 g (3×) and 30 g"}, {"measurement": "Body weight", "setting": "[3]; Time 18 d, individual animals", "result": "28.4 g and 27.9 g and 27.99 g and 26.76 g"}, {"measurement": "adverse effects, body weight, complete blood counts", "setting": "[3]; [4]", "result": "no adverse effects, change in body weight, or change in complete blood counts"}, {"measurement": "necropsy histopathology", "setting": "[3]; [4]", "result": "no histopathological abnormalities"}, {"measurement": "tolerability", "setting": "[3]; [4]", "result": "well tolerated with no observed toxicity"}, {"measurement": "Hematology Analysis BA", "setting": "[3]; [5]", "result": "0.03 and 0.02 and 0.04 and 0.06"}, {"measurement": "Hematology Analysis EO", "setting": "[3]; [5]", "result": "0.24 and 0.11 and 0.2 and 0.16"}, {"measurement": "Hematology Analysis WBC", "setting": "[3]; [5]", "result": "7.06 and 10.06 and 5.16 (2×)"}, {"measurement": "Hematology Analysis LY", "setting": "[3]; [6]", "result": "4.99 and 6.24 and 3.4 and 3.44"}, {"measurement": "Hematology Analysis MO", "setting": "[3]; [6]", "result": "0.24 and 0.93 and 0.14 and 0.21"}, {"measurement": "Hematology Analysis NE", "setting": "[3]; [6]", "result": "1.57 and 2.76 and 1.38 and 1.3"}, {"measurement": "Hematology Analysis PLT", "setting": "[3]; [6]", "result": "721 and 1152 and 272 and 338"}, {"measurement": "Hematology Analysis RBC", "setting": "[3]; individual animals, Supplementary Figure 8c, in 10^6/µL (unit assumed)", "result": "8.48 and 9.05 and 9.08 and 9.55"}, {"measurement": "Hematology Analysis HCT", "setting": "[3]; [7]", "result": "49.5 and 47.2 and 51.7 and 49.4"}, {"measurement": "Hematology Analysis RDW", "setting": "[3]; [7]", "result": "16.8 and 16.2 and 17.4 and 15.3"}, {"measurement": "Hematology Analysis MCV", "setting": "[3]; [8]", "result": "58.4 and 52.2 and 56.9 and 51.7"}, {"measurement": "Hematology Analysis MPV", "setting": "[3]; [8]", "result": "5.2 and 4.6 and 5.8 and 5.6"}, {"measurement": "Hematology Analysis HB", "setting": "[3]; [9]", "result": "13.7 and 13.8 and 15 and 14.2"}, {"measurement": "Hematology Analysis MCHC", "setting": "[3]; [9]", "result": "27.7 and 29.2 and 29 and 28.7"}, {"measurement": "Hematology Analysis MCH", "setting": "[3]; individual animals, Supplementary Figure 8c, in pg (unit assumed)", "result": "16.2 and 15.2 and 16.5 and 14.9"}]}
